Data on 28 compounds can be found in patent US10323022B2, “Pyrrolidinyl urea, pyrrolidinyl thiourea and pyrrolidinyl guanidine compounds as TrkA kinase inhibitors” (Array BioPharma Inc., priority 2011, dated 2019).

Each structure is given as a SMILES string. Where a name gives a salt, the structure may show the parent alone. A value given as a limit tells only on which side of the number the result lay.

The target in the assay is TrkA (Homo sapiens (Human), UniProt P04629). Briefly: TrkA Omnia Assay. Format: biochemical. The conditions noted are these: averaged IC50; 20 nM enzyme, 500 μM ATP, 10 μM peptide substrate. Summed up:
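Recombinant TrkA (20 nM) preincubated 10 min at ambient temperature with compound, then Omnia Tyr Peptide #4 (10 μM) and ATP (500 μM) added in 25 mM MOPS pH 7.5, 5 mM MgCl2, 0.005% Triton X-100. Fluorescence (ex 360/em 485 nm) followed continuously for 70 min; IC50 from initial rates by 4- or 5-parameter logistic fit.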

TrkA, sequence (P04629 33-796): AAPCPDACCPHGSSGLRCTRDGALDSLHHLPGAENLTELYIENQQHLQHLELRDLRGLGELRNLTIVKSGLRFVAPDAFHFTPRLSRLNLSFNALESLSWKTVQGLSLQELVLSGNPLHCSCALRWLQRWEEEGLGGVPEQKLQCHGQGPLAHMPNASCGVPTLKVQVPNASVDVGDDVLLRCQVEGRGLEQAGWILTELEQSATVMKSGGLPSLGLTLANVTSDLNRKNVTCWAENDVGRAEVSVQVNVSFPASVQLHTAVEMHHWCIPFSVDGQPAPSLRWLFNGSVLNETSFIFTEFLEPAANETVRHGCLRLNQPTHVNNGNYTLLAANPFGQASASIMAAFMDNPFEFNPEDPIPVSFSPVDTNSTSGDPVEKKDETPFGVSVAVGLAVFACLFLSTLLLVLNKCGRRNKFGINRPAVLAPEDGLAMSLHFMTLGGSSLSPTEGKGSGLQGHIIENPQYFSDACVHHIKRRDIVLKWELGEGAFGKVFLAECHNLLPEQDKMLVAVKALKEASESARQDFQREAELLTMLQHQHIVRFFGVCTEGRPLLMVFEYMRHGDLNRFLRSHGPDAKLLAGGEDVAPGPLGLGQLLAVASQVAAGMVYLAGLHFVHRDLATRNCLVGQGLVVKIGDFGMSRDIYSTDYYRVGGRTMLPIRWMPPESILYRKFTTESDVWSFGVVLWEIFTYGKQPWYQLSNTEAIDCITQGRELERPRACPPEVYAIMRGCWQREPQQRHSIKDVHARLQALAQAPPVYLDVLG

For orientation: IC50 means the point on the concentration scale where inhibition reaches its midpoint. A low value points to inhibition by little substance. The compound `COCCN1C[C@@H](NC(=O)Nc2c(C(N)=O)c(OC)nn2-c2ccccc2)[C@H](c2ccc(F)c(F)c2)C1` [Example 619, 5-(3-((3S,4R)-4-(3,4-difluorophenyl)-1-(2-methoxyethyl)pyrrolidin-3-yl)ureido)-3-methoxy-1-phenyl-1H-pyrazole-4-carboxamide] came in with an IC50 below 100 nM.
Then `COCCN1C[C@@H](NC(=O)Nc2c(C)c(-c3ccn(C)c(=O)c3)nn2-c2ccccc2)[C@H](c2ccc(F)c(F)c2)C1` [Example 505, 1-((3S,4R)-4-(3,4-difluorophenyl)-1-(2-methoxyethyl)pyrrolidin-3-yl)-3-(4-methyl-3-(1-methyl-2-oxo-1,2-dihydropyridin-4-yl)-1-phenyl-1H-pyrazol-5-yl)urea], with below 100 nM.
Then `COCCN1C[C@@H](NC(=O)Nc2c(C)c(-c3cnn(CCO)c3)nn2-c2ccccc2)[C@H](c2ccc(F)c(F)c2)C1` [Example 350, 1-((3S,4R)-4-(3,4-difluorophenyl)-1-(2-methoxyethyl)pyrrolidin-3-yl)-3-(1′-(2-hydroxyethyl)-4-methyl-1-phenyl-1H,1′H-[3,4′-bipyrazol]-5-yl)urea], with below 100 nM.
For `COCCN1C[C@@H](NC(=O)Nc2c(Cl)c(OC[C@@H](C)O)nn2-c2ccccc2)[C@H](c2ccc(F)c(F)c2)C1` [Example 372, 1-(4-chloro-3-((R)-2-hydroxypropoxy)-1-phenyl-1H-pyrazol-5-yl)-3-((3S,4R)-4-(3,4-difluorophenyl)-1-(2-methoxyethyl)pyrrolidin-3-yl)urea] the value was below 100 nM; for `COCCN1C[C@@H](NC(=S)Nc2c(Br)c(C)nn2-c2ccccc2)[C@H](c2ccc(F)c(F)c2)C1` [Example 630, 1-(4-bromo-3-methyl-1-phenyl-1H-pyrazol-5-yl)-3-((3S,4R)-4-(3,4-difluorophenyl)-1-(2-methoxyethyl)pyrrolidin-3-yl)thiourea], below 100 nM; for `COCCN1C[C@@H](NC(=O)Nc2cc(-c3cccc(C#N)c3)nn2C)[C@H](c2ccc(F)c(F)c2)C1` [Example 59, 1-(3-(3-cyanophenyl)-1-methyl-1H-pyrazol-5-yl)-3-((3S,4R)-4-(3,4-difluorophenyl)-1-(2-methoxyethyl)pyrrolidin-3-yl)urea], below 100 nM.
In the case of `COCCN1C[C@@H](NC(=O)Nc2c3c(nn2-c2ccccc2)CCC3)[C@H](c2cnco2)C1` (relative stereo) [Example 46, 1-(trans-1-(2-methoxyethyl)-4-(oxazol-5-yl)pyrrolidin-3-yl)-3-(2-phenyl-2,4,5,6-tetrahydrocyclopenta[c]pyrazol-3-yl)urea], the half-inhibitory concentration (IC50) fell in the range of 1000 to 10000 nM.
Compound `COCCN1C[C@@H](NC(=O)Nc2c(C)c(OCCN)nn2-c2ccccc2)[C@H](c2ccc(F)c(F)c2)C1` [Example 543, 1-(3-(2-aminoethoxy)-4-methyl-1-phenyl-1H-pyrazol-5-yl)-3-((3S,4R)-4-(3,4-difluorophenyl)-1-(2-methoxyethyl)pyrrolidin-3-yl)urea] showed an IC50 below 100 nM.
For the compound `CCOc1nn(-c2ccccc2)c(NC(=O)N[C@@H]2CN(c3ccnc(OC)c3)C[C@H]2c2ccccc2)c1C` [Example 241, 1-(3-ethoxy-4-methyl-1-phenyl-1H-pyrazol-5-yl)-3-((3S,4R)-1-(2-methoxypyridin-4-yl)-4-phenylpyrrolidin-3-yl)urea], the IC50 was in the range of 100 to 1000 nM.
For `COCCN1C[C@@H](NC(=O)Nc2cc(-c3ccccc3)nn2C)[C@H](c2ccc(F)c(F)c2)C1` [Example 93, 1-((3S,4R)-4-(3,4-difluoro-phenyl)-1-(2-methoxyethyl)pyrrolidin-3-yl)-3-(1-methyl-3-phenyl-1H-pyrazol-5-yl)urea] the value was below 100 nM.
The compound `CNCCN1C[C@@H](NC(=O)Nc2c3c(nn2-c2ccccc2)CCC3)[C@H](c2ccc(F)cc2)C1` (relative stereo) [Example 256, 1-((trans)-4-(4-fluorophenyl)-1-(2-(methylamino)ethyl)pyrrolidin-3-yl)-3-(2-phenyl-2,4,5,6-tetrahydrocyclopenta[c]pyrazol-3-yl)urea] displayed an IC50 of 100 to 1000 nM.
For `COCCOc1nn(-c2ccccc2)c(NC(=O)N[C@@H]2CN(CC#N)C[C@H]2c2ccc(F)c(F)c2)c1C` [Example 187, 1-((3S,4R)-1-(cyanomethyl)-4-(3,4-difluorophenyl)pyrrolidin-3-yl)-3-(3-(2-methoxyethoxy)-4-methyl-1-phenyl-1H-pyrazol-5-yl)urea] the value was 100 to 1000 nM.
`COCCN1C[C@@H](NC(=O)Nc2c(C)c(OC[C@@H](C)O)nn2-c2ccccc2)[C@H](c2ccc(F)cc2)C1` [Example 364, 1-((3S,4R)-4-(4-fluorophenyl)-1-(2-methoxyethyl)pyrrolidin-3-yl)-3-(3-((R)-2-hydroxypropoxy)-4-methyl-1-phenyl-1H-pyrazol-5-yl)urea] registered an IC50 below 100 nM.
Then `COCCN1C[C@@H](NC(=O)Nc2c(C)c(Br)nn2-c2ccccc2)[C@H](c2ccc(F)c(F)c2)C1` [Example 352, 1-(3-bromo-4-methyl-1-phenyl-1H-pyrazol-5-yl)-3-((3S,4R)-4-(3,4-difluorophenyl)-1-(2-methoxyethyl)pyrrolidin-3-yl)urea], with below 100 nM.
Then `CCOc1nn(-c2ccccc2)c(NC(=O)N[C@@H]2CN(CCOC)C[C@H]2c2ccc(F)c(F)c2)c1Cl` [Example 356, 1-(4-chloro-3-ethoxy-1-phenyl-1H-pyrazol-5-yl)-3-((3S,4R)-4-(3,4-difluorophenyl)-1-(2-methoxyethyl)pyrrolidin-3-yl)urea], with below 100 nM.
In turn, `COCCN1C[C@@H](NC(=O)Nc2cc(C(C)(C)C)nn2-c2ccc(C)cc2)[C@H](c2ccccc2)C1` (relative stereo) [Example 2, 1-(3-tert-butyl-1-p-tolyl-1H-pyrazol-5-yl)-3-(trans-1-(2-methoxyethyl)-4-phenylpyrrolidin-3-yl) urea hydrochloride] gave an IC50 of 1000 to 10000 nM.
On to `COCCN1C[C@@H](NC(=O)Nc2cc(-c3ccc(C(=O)O)cc3)nn2C)[C@H](c2ccc(F)c(F)c2)C1` [Example 161, 4-(5-(3-((3S,4R)-4-(3,4-difluorophenyl)-1-(2-methoxyethyl)pyrrolidin-3-yl)ureido)-1-methyl-1H-pyrazol-3-yl)benzoic acid], for which the IC50 was below 100 nM.
In the case of `COCCN1C[C@@H](NC(=O)Nc2c(C)c(-c3cnn(C)c3)nn2-c2ccc(F)c(Cl)c2)[C@H](c2ccc(F)cc2)C1` [Example 322], the IC50 was below 100 nM.
On to `COCCN1C[C@@H](NC(=O)Nc2c(C)c(C[C@H](C)O)nn2-c2ccccc2)[C@H](c2ccc(F)c(F)c2)C1` [Example 289, 1-((3S,4R)-4-(3,4-difluorophenyl)-1-(2-methoxyethyl)pyrrolidin-3-yl)-3-(3-((S)-2-hydroxypropyl)-4-methyl-1-phenyl-1H-pyrazol-5-yl)urea], for which the half-inhibitory concentration (IC50) was below 100 nM.
For `COCCN1C[C@@H](NC(=O)Nc2c(Cl)c(COC)nn2-c2ccccc2)[C@H](c2ccc(F)cc2)C1` [Example 407, 1-(4-chloro-3-(methoxymethyl)-1-phenyl-1H-pyrazol-5-yl)-3-((3S,4R)-4-(4-fluorophenyl)-1-(2-methoxyethyl)pyrrolidin-3-yl)urea] the value was below 100 nM; for `COCCN1C[C@@H](NC(=O)Nc2c(-c3ccccc3)nn(-c3cnccn3)c2C)[C@H](c2ccc(F)c(F)c2)C1` [Example 638, 1-((3S,4R)-4-(3,4-difluorophenyl)-1-(2-methoxyethyl)pyrrolidin-3-yl)-3-(5-methyl-3-phenyl-1-(pyrazin-2-yl)-1H-pyrazol-4-yl)urea], below 100 nM.
For `CNC(=O)c1nn(-c2ccccc2)c(NC(=O)N[C@@H]2CN(CCOC)C[C@H]2c2ccc(F)c(F)c2)c1C` [Example 459, 5-(3-((3S,4R)-4-(3,4-difluorophenyl)-1-(2-methoxyethyl)pyrrolidin-3-yl)ureido)-N,4-dimethyl-1-phenyl-1H-pyrazole-3-carboxamide] the value was below 100 nM.
Then `COCCN1C[C@@H](NC(=O)Nc2cc(-c3ccc(OC)cc3)nn2C)[C@H](c2ccccc2)C1` [Example 108, 1-((3S,4R)-1-(2-methoxy-ethyl)-4-phenylpyrrolidin-3-yl)-3-(3-(4-methoxy-phenyl)-1-methyl-1H-pyrazol-5-yl)urea], with below 100 nM; and `COCCN1C[C@@H](NC(=O)Nc2c3c(nn2-c2ccncc2)CCC3)[C@H](c2ccccc2)C1` [Example 151, 1-((3S,4R)-1-(2-methoxyethyl)-4-phenylpyrrolidin-3-yl)-3-(2-(pyridin-4-yl)-2,4,5,6-tetrahydrocyclopenta[c]pyrazol-3-yl)urea], with below 100 nM.
The compound `COCCN1C[C@@H](NC(=O)Nc2c(C)c([C@H]3CCCN3C)nn2-c2ccccc2)[C@H](c2ccc(F)c(F)c2)C1` [Example 597, 1-((3S,4R)-4-(3,4-difluorophenyl)-1-(2-methoxyethyl)pyrrolidin-3-yl)-3-(4-methyl-3-((R)-1-methylpyrrolidin-2-yl)-1-phenyl-1H-pyrazol-5-yl)urea dihydrochloride] showed a half-maximal inhibitory concentration (IC50) below 100 nM.
Turning to `COCCN1C[C@@H](NC(=O)Nc2c3c(nn2-c2ccccc2)C(=O)N(C)C3)[C@H](c2ccc(F)c(F)c2)C1` [Example 353, 1-((3S,4R)-4-(3,4-difluorophenyl)-1-(2-methoxyethyl)pyrrolidin-3-yl)-3-(5-methyl-6-oxo-2-phenyl-2,4,5,6-tetrahydropyrrolo[3,4-c]pyrazol-3-yl)urea], the IC50 is 100 to 1000 nM.
With `CCc1nn(-c2ccccc2)c(NC(=O)N[C@@H]2CN(CCOC)C[C@H]2c2ccc(F)c(F)c2)c1C` [Example 72, 1-((3S,4R)-4-(3,4-difluorophenyl)-1-(2-methoxyethyl)pyrrolidin-3-yl)-3-(3-ethyl-4-methyl-1-phenyl-1H-pyrazol-5-yl)urea], the 50% inhibitory concentration (IC50) was below 100 nM.
Then `COCCN1CC(c2sc(C)nc2C)[C@H](NC(=O)Nc2c3c(nn2-c2ccccc2)CCC3)C1` (stereo partly drawn) [Example 45, 1-((3,4-trans)-4-(2,4-dimethylthiazol-5-yl)-1-(2-methoxyethyl)pyrrolidin-3-yl)-3-(2-phenyl-2,4,5,6-tetrahydrocyclopenta[c]pyrazol-3-yl)urea], with 1000 to 10000 nM.
